Results as given in patent publication US9695155B2, “Herbicidal substituted pyrimidinyloxy benzene compounds” (E. I. DU PONT DE NEMOURS AND COMPANY, priority 2013, dated 2017).

Tests used:
large (Lg) crabgrass [1] = experiment: Test A preemergence; type: in vivo, Digitaria sanguinalis
In short: (§1)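 Injury scores run from 0, no effect, to 100, complete control, judged by eye against untreated plants roughly 10 days after treatment. Chemicals carried a surfactant in a non-phytotoxic solvent and went onto loam–sand soil preemergence or onto one- to two-leaf seedlings postemergence.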

morningglory [2] = experiment: Test A postemergence; type: in vivo, Ipomoea spp.
In short: as §1

rice = experiment: Test B flooded paddy test; type: in vivo, Oryza sativa; conditions: Flood, 250 g ai/ha; 0 to 100 scale where 0 is no effect and 100 is complete control
In short: (§2)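 Evaluation is visual, against untreated controls, 13 to 15 days after treatment. Before treatment, plants reached the 2-leaf stage; pots were then flooded 3 cm deep, compound was added to the water, and that level was maintained. Ratings run 0 to 100, with 100 meaning complete control.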

wheat [3] = experiment: Test A preemergence; type: in vivo, Triticum aestivum
In short: as §1

pigweed [4] = experiment: Test A preemergence; type: in vivo, Amaranthus retroflexus
In short: as §1

velvetleaf [5] = experiment: Test A postemergence; type: in vivo, Abutilon theophrasti
In short: as §1

giant foxtail [6] = experiment: Test A postemergence; type: in vivo, Setaria faberii
In short: as §1

corn [7] = experiment: Test A preemergence; type: in vivo, Zea mays
In short: as §1

morningglory [8] = experiment: Test A preemergence; type: in vivo, Ipomoea spp.
In short: as §1

Heteranthera limosa = experiment: Test B flooded paddy test; type: in vivo; conditions: Flood, 250 g ai/ha; 0 to 100 scale where 0 is no effect and 100 is complete control
In short: as §2

barnyardgrass [9] = experiment: Test A preemergence; type: in vivo, Echinochloa crus-galli
In short: as §1

barnyardgrass [10] = experiment: Test B flooded paddy test; type: in vivo, Echinochloa crus-galli; conditions: Flood, 250 g ai/ha; 0 to 100 scale where 0 is no effect and 100 is complete control
In short: as §2

corn [11] = experiment: Test A postemergence; type: in vivo, Zea mays
In short: as §1

giant foxtail [12] = experiment: Test A preemergence; type: in vivo, Setaria faberii
In short: as §1

barnyardgrass [13] = experiment: Test A postemergence; type: in vivo, Echinochloa crus-galli
In short: as §1

wheat [14] = experiment: Test A postemergence; type: in vivo, Triticum aestivum
In short: as §1

large (Lg) crabgrass [15] = experiment: Test A postemergence; type: in vivo, Digitaria sanguinalis
In short: as §1

velvetleaf [16] = experiment: Test A preemergence; type: in vivo, Abutilon theophrasti
In short: as §1

pigweed [17] = experiment: Test A postemergence; type: in vivo, Amaranthus retroflexus
In short: as §1

sedge, umbrella = experiment: Test B flooded paddy test; type: in vivo, Cyperus difformis; conditions: Flood, 250 g ai/ha; 0 to 100 scale where 0 is no effect and 100 is complete control
In short: as §2

[18] = 125 g ai/ha, 0 to 100 scale where 0 is no effect and 100 is complete control
[19] = 500 g ai/ha, 0 to 100 scale, 0 no effect, 100 complete control, approx. 10 days
[20] = 500 g ai/ha, 0 to 100 scale, 0 no effect, 100 complete control
[21] = 500 g ai/ha, 0 to 100 scale where 0 is no effect and 100 is complete control
[22] = 125 g ai/ha, 0 to 100 scale, 0 no effect, 100 complete control

SMILES: FC(F)(F)c1cnc(Oc2ccccc2-n2cc(C(F)(F)F)cn2)nc1 [Compound 17]
- Crabgrass, Large plant response rating (large (Lg) crabgrass [1]; [18]): 40
- Crabgrass, Large plant response rating (large (Lg) crabgrass [1]; [19]): 90
- Plant response rating, Morningglory (morningglory [2]; [18]): 20
- Plant response rating, Morningglory (morningglory [2]; [20]): 50
- Plant response rating, Rice (rice): 25
- Wheat plant response rating (wheat [3]; [18]): 0
- Wheat plant response rating (wheat [3]; [19]): 70
- Pigweed plant response rating (pigweed [4]; [18]): 100
- Pigweed plant response rating (pigweed [4]; [19]): 100
- Plant response rating, Velvetleaf (velvetleaf [5]; [18]): 50
- Plant response rating, Velvetleaf (velvetleaf [5]; [20]): 100
- Plant response rating, Foxtail, Giant (giant foxtail [6]; [18]): 20
- Plant response rating, Foxtail, Giant (giant foxtail [6]; [20]): 90
- Corn plant response rating (corn [7]; [18]): 0
- Corn plant response rating (corn [7]; [19]): 0
- Morningglory plant response rating (morningglory [8]; [18]): 0
- Morningglory plant response rating (morningglory [8]; [19]): 20
- Plant response rating, Ducksalad (Heteranthera limosa): 75
- Barnyardgrass plant response rating (barnyardgrass [9]; [18]): 50
- Barnyardgrass plant response rating (barnyardgrass [9]; [19]): 60
- Plant response rating, Barnyardgrass (barnyardgrass [10]): 0
- Plant response rating, Corn (corn [11]; [18]): 0
- Plant response rating, Corn (corn [11]; [20]): 40
- Foxtail, Giant plant response rating (giant foxtail [12]; [18]): 60
- Foxtail, Giant plant response rating (giant foxtail [12]; [19]): 90
- Plant response rating, Barnyardgrass (barnyardgrass [13]; [18]): 0
- Plant response rating, Barnyardgrass (barnyardgrass [13]; [20]): 20
- Plant response rating, Wheat (wheat [14]; [18]): 0
- Plant response rating, Wheat (wheat [14]; [20]): 50
- Plant response rating, Crabgrass, Large (large (Lg) crabgrass [15]; [18]): 20
- Plant response rating, Crabgrass, Large (large (Lg) crabgrass [15]; [20]): 90
- Velvetleaf plant response rating (velvetleaf [16]; [18]): 70
- Velvetleaf plant response rating (velvetleaf [16]; [19]): 90
- Plant response rating, Pigweed (pigweed [17]; [18]): 70
- Plant response rating, Pigweed (pigweed [17]; [20]): 100
- Plant response rating, Sedge, Umbrella (sedge, umbrella): 90

SMILES: COc1ccc(Oc2ncc(Cl)cn2)c(-n2cc(Br)cn2)c1 [Compound 42]
- Plant response rating, Crabgrass, Large (large (Lg) crabgrass [1]; [18]): 10
- Crabgrass, Large plant response rating (large (Lg) crabgrass [1]; [19]): 30
- Plant response rating, Morningglory (morningglory [2]; [18]): 20
- Plant response rating, Morningglory (morningglory [2]; [20]): 40
- Plant response rating, Rice (rice): 15
- Plant response rating, Wheat (wheat [3]; [18]): 0
- Wheat plant response rating (wheat [3]; [19]): 0
- Plant response rating, Pigweed (pigweed [4]; [18]): 0
- Pigweed plant response rating (pigweed [4]; [19]): 20
- Plant response rating, Velvetleaf (velvetleaf [5]; [18]): 60
- Plant response rating, Velvetleaf (velvetleaf [5]; [20]): 70
- Plant response rating, Foxtail, Giant (giant foxtail [6]; [18]): 0
- Plant response rating, Foxtail, Giant (giant foxtail [6]; [20]): 30
- Plant response rating, Corn (corn [7]; [18]): 0
- Corn plant response rating (corn [7]; [19]): 0
- Plant response rating, Morningglory (morningglory [8]; [18]): 0
- Morningglory plant response rating (morningglory [8]; [19]): 0
- Plant response rating, Ducksalad (Heteranthera limosa): 45
- Plant response rating, Barnyardgrass (barnyardgrass [9]; [18]): 0
- Barnyardgrass plant response rating (barnyardgrass [9]; [19]): 10
- Plant response rating, Barnyardgrass (barnyardgrass [10]): 0
- Plant response rating, Corn (corn [11]; [18]): 0
- Plant response rating, Corn (corn [11]; [20]): 0
- Plant response rating, Foxtail, Giant (giant foxtail [12]; [18]): 10
- Foxtail, Giant plant response rating (giant foxtail [12]; [19]): 20
- Plant response rating, Barnyardgrass (barnyardgrass [13]; [18]): 0
- Plant response rating, Barnyardgrass (barnyardgrass [13]; [20]): 0
- Plant response rating, Wheat (wheat [14]; [18]): 0
- Plant response rating, Wheat (wheat [14]; [20]): 0
- Plant response rating, Crabgrass, Large (large (Lg) crabgrass [15]; [18]): 10
- Plant response rating, Crabgrass, Large (large (Lg) crabgrass [15]; [20]): 50
- Plant response rating, Velvetleaf (velvetleaf [16]; [18]): 60
- Velvetleaf plant response rating (velvetleaf [16]; [19]): 60
- Plant response rating, Pigweed (pigweed [17]; [18]): 0
- Plant response rating, Pigweed (pigweed [17]; [20]): 30
- Plant response rating, Sedge, Umbrella (sedge, umbrella): 0

SMILES: N#Cc1cc(F)cc(Oc2ncc(Br)cn2)c1-n1cc(Br)cn1 [Compound 239]
- Crabgrass, Large plant response rating (0 to 100 scale) (large (Lg) crabgrass [1]; 125 g ai/ha): 100
- Crabgrass, Large plant response rating (large (Lg) crabgrass [1]; [21]): 100
- Morningglory plant response rating (morningglory [2]; [18]): 40
- Plant response rating, Morningglory (morningglory [2]; [21]): 40
- Plant response rating, Rice (rice): 30
- Wheat plant response rating (0 to 100 scale) (wheat [3]; 125 g ai/ha): 0
- Wheat plant response rating (wheat [3]; [21]): 20
- Pigweed plant response rating (0 to 100 scale) (pigweed [4]; 125 g ai/ha): 100
- Pigweed plant response rating (pigweed [4]; [21]): 100
- Velvetleaf plant response rating (velvetleaf [5]; [18]): 50
- Plant response rating, Velvetleaf (velvetleaf [5]; [21]): 60
- Foxtail, Giant plant response rating (giant foxtail [6]; [18]): 20
- Plant response rating, Foxtail, Giant (giant foxtail [6]; [21]): 70
- Corn plant response rating (0 to 100 scale) (corn [7]; 125 g ai/ha): 0
- Corn plant response rating (corn [7]; [21]): 10
- Morningglory plant response rating (0 to 100 scale) (morningglory [8]; 125 g ai/ha): 0
- Morningglory plant response rating (morningglory [8]; [21]): 30
- Plant response rating, Ducksalad (Heteranthera limosa): 65
- Barnyardgrass plant response rating (0 to 100 scale, 0 is no effect, 100 is complete control) (barnyardgrass [9]; 125 g ai/ha): 20
- Barnyardgrass plant response rating (barnyardgrass [9]; [21]): 100
- Plant response rating, Barnyardgrass (barnyardgrass [10]): 0
- Corn plant response rating (corn [11]; [18]): 0
- Plant response rating, Corn (corn [11]; [21]): 20
- Foxtail, Giant plant response rating (0 to 100 scale) (giant foxtail [12]; 125 g ai/ha): 90
- Foxtail, Giant plant response rating (giant foxtail [12]; [21]): 100
- Barnyardgrass plant response rating (barnyardgrass [13]; [18]): 0
- Plant response rating, Barnyardgrass (barnyardgrass [13]; [21]): 80
- Wheat plant response rating (wheat [14]; [18]): 0
- Plant response rating, Wheat (wheat [14]; [21]): 0
- Crabgrass, Large plant response rating (large (Lg) crabgrass [15]; [18]): 10
- Plant response rating, Crabgrass, Large (large (Lg) crabgrass [15]; [21]): 70
- Velvetleaf plant response rating (0 to 100 scale) (velvetleaf [16]; 125 g ai/ha): 10
- Velvetleaf plant response rating (velvetleaf [16]; [21]): 20
- Pigweed plant response rating (pigweed [17]; [18]): 90
- Plant response rating, Pigweed (pigweed [17]; [21]): 100
- Plant response rating, Sedge, Umbrella (sedge, umbrella): 70

SMILES: Brc1cnn(-c2ccccc2Oc2ncccn2)c1 [Compound 275]
- Crabgrass, Large plant response rating (0 to 100 scale) (large (Lg) crabgrass [1]; 125 g ai/ha): 0
- Crabgrass, Large plant response rating (large (Lg) crabgrass [1]; [21]): 70
- Plant response rating, Morningglory (morningglory [2]; [22]): 10
- Plant response rating, Morningglory (morningglory [2]; [21]): 50
- Plant response rating, Rice (rice): 15
- Wheat plant response rating (0 to 100 scale) (wheat [3]; 125 g ai/ha): 0
- Wheat plant response rating (wheat [3]; [21]): 0
- Pigweed plant response rating (0 to 100 scale) (pigweed [4]; 125 g ai/ha): 80
- Pigweed plant response rating (pigweed [4]; [21]): 90
- Plant response rating, Velvetleaf (velvetleaf [5]; [22]): 60
- Plant response rating, Velvetleaf (velvetleaf [5]; [21]): 90
- Plant response rating, Foxtail, Giant (giant foxtail [6]; [22]): 0
- Plant response rating, Foxtail, Giant (giant foxtail [6]; [21]): 30
- Corn plant response rating (0 to 100 scale) (corn [7]; 125 g ai/ha): 0
- Corn plant response rating (corn [7]; [21]): 0
- Morningglory plant response rating (0 to 100 scale) (morningglory [8]; 125 g ai/ha): 0
- Morningglory plant response rating (morningglory [8]; [21]): 0
- Plant response rating, Ducksalad (Heteranthera limosa): 30
- Barnyardgrass plant response rating (0 to 100 scale, 0 is no effect, 100 is complete control) (barnyardgrass [9]; 125 g ai/ha): 0
- Barnyardgrass plant response rating (barnyardgrass [9]; [21]): 0
- Plant response rating, Barnyardgrass (barnyardgrass [10]): 15
- Plant response rating, Corn (corn [11]; [22]): 0
- Plant response rating, Corn (corn [11]; [21]): 0
- Foxtail, Giant plant response rating (0 to 100 scale) (giant foxtail [12]; 125 g ai/ha): 0
- Foxtail, Giant plant response rating (giant foxtail [12]; [21]): 70
- Plant response rating, Barnyardgrass (barnyardgrass [13]; [22]): 0
- Plant response rating, Barnyardgrass (barnyardgrass [13]; [21]): 0
- Plant response rating, Wheat (wheat [14]; [22]): 0
- Plant response rating, Wheat (wheat [14]; [21]): 0
- Plant response rating, Crabgrass, Large (large (Lg) crabgrass [15]; [22]): 0
- Plant response rating, Crabgrass, Large (large (Lg) crabgrass [15]; [21]): 20
- Velvetleaf plant response rating (0 to 100 scale) (velvetleaf [16]; 125 g ai/ha): 20
- Velvetleaf plant response rating (velvetleaf [16]; [21]): 60
- Plant response rating, Pigweed (pigweed [17]; [22]): 80
- Plant response rating, Pigweed (pigweed [17]; [21]): 90
- Plant response rating, Sedge, Umbrella (sedge, umbrella): 0
